Laboratory results reported in the NIST ThermoML archive (doi:10.1016/j.jct.2015.07.024).
Numbers after ± are expanded uncertainties.

Conditions: Liquid, Closed cell (Static) method

Row | vapor or sublimation pressure (373 K) [kPa] | vapor or sublimation pressure (412.5 K) [kPa] | vapor or sublimation pressure (452.2 K) [kPa] | vapor or sublimation pressure (412.8 K) [kPa] | vapor or sublimation pressure (452.3 K) [kPa] | vapor or sublimation pressure (373.2 K) [kPa] | vapor or sublimation pressure (413.2 K) [kPa] | vapor or sublimation pressure (453.2 K) [kPa] | Compound
1 | 45.1 ± 2.1 | 143 ± 5.9 | 361 ± 15 | – | – | – | – | – | CCOC(=O)OCC [diethyl carbonate]
2 | 205.7 ± 9 | – | – | 557.1 ± 23 | 1222.7 ± 49 | – | – | – | CCOC(C)=O [ethyl acetate]
3 | – | – | – | – | – | 3.5 ± 0.2 | 18.2 ± 0.8 | 66.1 ± 2.7 | CC(=O)Oc1ccccc1 [phenyl ethanoate]
